# Measurements published in patent publication US20260028337A1, “COMPOUND FOR INHIBITING IRAK4 ACTIVITY AND USE THEREOF” (SHENZHEN ZHONGGE BIOLOGICAL TECHNOLOGY CO., LTD., priority 2022, published 2026).
# Counter-ions that a name gives are not always drawn.
# Biological target: IRAK4 kinase (Homo sapiens (Human), UniProt Q9NWZ3)
# Experiment: IRAK4 Kinase Inhibition Assay (Cisbio HTRF KinEASE-STK S1 kit)
# Format: biochemical
# Details: IRAK4 kinase protein 10 nM, ATP 200 μM, STK Substrate 1-biotin 1 μM, 37° C. 2 h, read-out: IC50 (nM), IRAK4 kinase inhibitory activity
# Procedure: Test Example 1. IRAK4 Kinase Inhibition Assay
# In this assay, Cisbio HTRF KinEASE-STK SI kit (62S 1 PEB) was used, in which assay/detection buffer, STK Substrate 1-biotin, Streptavidin-XL665, STK Antibody-Cryptate were contained.
# After adding compound/DMSO to a 384-well plate (PerkinElmer 6008280) using Echo 665, 5 μL of 2-fold reaction concentration of IRAK4 kinase protein (final concentration: 10 nM) dissolved with assay buffer [1 volume of 5× kinase buffer+20 mM magnesium chloride (Sigma) solution+1 mM DTT (Alfa Aesar) solution+4 volumes deionized water] was added, followed by sealing the shallow well plate, shaking and then centrifuging at 1000 rpm for 1 min, and incubating at room temperature for 5 min; then 5 μL of 2-fold reaction concentration of a 1:1 mixture of STK Substrate 1-biotin (final concentration: 1 μM) and ATP (Sigma A1852) (final concentration: 200 μM) formulated with assay buffer was added, followed by sealing the shallow well plate, shaking and then centrifuging at 1000 rpm for 1 min, and incubating at 37° C. for 2 h, and then 10 μL of a 1:1 mixture of Streptavidin-XL665 (final concentration: 62.5 nM) and STK-antibody-cryptate dissolved with detection buffer was added, followed by sealing the shallow well plate, shaking and then centrifuging at 1000 rpm for 1 min, and incubating at room temperature for 1 h, and thereafter reading the value at the wavelength of 620 nm/665 nm using a microplate reader. The data were analyzed using Prism 9.3 software, and the IC50 value of IRAK4 kinase inhibition was fitted using a four parameter Logistic equation.
# Chain of IRAK4 kinase (Q9NWZ3 whole entry): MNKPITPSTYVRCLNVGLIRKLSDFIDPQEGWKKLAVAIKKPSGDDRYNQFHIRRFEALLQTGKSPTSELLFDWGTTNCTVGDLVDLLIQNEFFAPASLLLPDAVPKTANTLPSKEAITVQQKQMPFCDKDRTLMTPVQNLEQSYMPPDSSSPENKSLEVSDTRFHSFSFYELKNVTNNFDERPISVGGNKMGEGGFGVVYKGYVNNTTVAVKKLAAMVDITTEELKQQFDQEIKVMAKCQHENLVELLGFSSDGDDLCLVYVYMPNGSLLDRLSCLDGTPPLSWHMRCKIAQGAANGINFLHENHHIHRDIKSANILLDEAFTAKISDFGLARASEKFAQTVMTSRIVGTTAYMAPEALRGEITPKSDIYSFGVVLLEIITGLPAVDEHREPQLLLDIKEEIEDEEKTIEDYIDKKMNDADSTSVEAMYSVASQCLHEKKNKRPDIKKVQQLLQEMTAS
row,SMILES,IC50 [nM]
1,"N[C@H]1CCCN(c2ccn3ncc(-c4cn(-c5cn(C6CCC(CO)CC6)nc5C(F)F)nn4)c3n2)C1 (stereo partly drawn) [Compound 103A, ((1r, 4r)-4-(4-(4-(5-((S)-3-aminopiperidin-1-yl)pyrazolo[1,5-a]pyrimidin-3-yl)-1H-1,2,3-triazol-1-yl)-3-(difluoromethyl)-1H-pyrazol-1-yl]cyclohexyl) methanol]",< 100
2,C[C@H]1CN(c2ccn3ncc(-c4cn(-c5cn(C6CCC(CO)CC6)nc5C(F)F)nn4)c3n2)C[C@H](C)O1 (stereo partly drawn) [Compound 109A],< 100
3,"NC(=O)c1cnn2c(-c3cn(-c4cn(C5CCCCC5)nc4C(F)F)nn3)ccc2c1 [Compound 60A, 7-(1-(1-cyclohexyl-3-(difluoromethyl)-1H-pyrazol-4-yl)-1H-1,2,3-triazol-4-yl) pyrrolo[1,2-b]pyridazine-3-formamide]",< 100
4,"C[C@@H]1CC(n2cc(-n3cc(-c4cnn5ccc(N6CCOCC6)nc45)nn3)c(C(F)F)n2)CCN1 (stereo partly drawn) [Compound 80A, 4-(3-(3-difluoromethyl)-1-(2R)-2-methylpiperidin-4-yl)-1H-pyrazol-4-yl)-1H-1,2,3-triazol-4-yl)pyrazolo[1,5-a]pyrimidin-5-yl) morpholine hydrochloride]",100 to 1000
5,"N#Cc1cnc2c(ccn2-c2cn(-c3cn(C4CCCCC4)nc3C(F)F)nn2)c1 [Compound 43A, 1-(1-(1-cyclohexyl-3-(difluoromethyl)-1H-pyrazol-4-yl)-1H-1,2,3-triazol-4-yl]-1H-pyrrolo[2,3-b]pyridine-5-carbonitrile]",1000 to 5000
6,"FC(F)c1nn(C2CCCCC2)cc1-n1cc(-c2cnn3ccc(N4CCOCC4)nc23)nn1 [Compound 4A, 4-(3-(1-(1-cyclohexyl-3-(difluoromethyl)-1H-pyrazol-4-yl)-1H-1,2,3-triazol-4-yl)pyrazolo[1,5-a]pyrimidin-5-yl) morpholine]",< 100
7,"CC(C)(O)CCNc1ccn2ncc(-c3cn(-c4cn([C@H]5CC[C@H](CO)CC5)nc4C(F)F)nn3)c2n1 [Compound 92A, 4-((3-(1-(3-(difluoromethyl)-1-((1r,4r)-4-(methylol)cyclohexyl)-1H-pyrazol-4-yl)-1H-1,2,3-triazol-4-yl]pyrazolo[1,5-a]pyrimidin-5-yl)amino)-2-methylbutan-2-ol]",< 100
8,"OC[C@H]1CC[C@H](n2cc(-n3cc(-c4cnn5ccc(NCC6CC6)nc45)nn3)c(C(F)F)n2)CC1 [Compound 94A, ((1r,4r)-4-(4-(4-(5-((cyclopropylmethyl)amino)pyrazolo[1,5-a]pyrimidin-3-yl)-1H-1,2,3-triazol-1-yl)-3-(difluoromethyl)-1H-pyrazol-1-yl)cyclohexyl)methanol]",< 100
9,"OC[C@H]1CC[C@H](n2cc(-n3cc(-c4cnn5ccc(N6CC(O)C6)nc45)nn3)c(C(F)F)n2)CC1 [Compound 96A, 1-(3-(1-(3-difluoromethyl)-1-((1r,4r)-4-(methylol)cyclohexyl)-1H-pyrazol-4-yl)-1H-1,2,3-triazol-4-ylpyrazolo[1,5-a]pyrimidin-5-yl)azetidin-3-ol]",100 to 1000
10,"O=S1(=O)CCN(c2ccn3ncc(-c4cn(-c5cn([C@H]6CC[C@H](CO)CC6)nc5C(F)F)nn4)c3n2)CC1 [Compound 91A, 4-(3-(1-(3-(difluoromethyl)-1-((1r,4r)-4-(methylol)cyclohexyl)-1H-pyrazol-4-yl)-1H-1,2,3-triazol-4-yl)pyrazolo[1,5-a]pyrimidin-5-yl)thiomorpholine 1,1-dioxide]",100 to 1000
11,"O=C(NC1CNCC1(F)F)c1cnn2c(-c3cn(-c4cn(C5CCCCC5)nc4C(F)F)nn3)ccc2c1 (stereo not drawn) [Compound 68A, 7-(1-(1-cyclohexyl-3-(difluoromethyl)-1H-pyrazol-4-yl)-1H-1,2,3-triazol-4-yl]-N-(4,4-difluoropyrrolidin-3-yl)pyrrolo[1,2-b]pyridazine-3-formamide]",1000 to 5000
12,N[C@@H]1CCCN(c2ccn3ncc(-c4cn(-c5cn(C6CCC(CO)CC6)nc5C(F)F)nn4)c3n2)C1 (stereo partly drawn) [Compound 106A],< 100
13,"O=C(O)c1cnn2c(-c3cn(-c4cn(C5CCCCC5)nc4C(F)F)nn3)ccc2c1 [Compound 61A, 7-(1-(1-cyclohexyl-3-(difluoromethyl)-1H-pyrazol-4-yl)-1H-1,2,3-triazol-4-yl]pyrrolo[1,2-b]pyridazine-3-carboxylic acid]",100 to 1000
14,"FC(F)c1nn(C2CCCCC2)cc1-n1cc(-c2cnn3cccnc23)nn1 [Compound 56A, 3-(1-(1-cyclohexyl-3-(difluoromethyl)-1H-pyrazol-4-yl)-1H-1,2,3-triazol-4-yl]pyrazolo[1,5-a]pyrimidine]",1000 to 5000
15,"CC1(C)CN(c2ccn3ncc(-c4cn(-c5cn(C6CCC(CO)CC6)nc5C(F)F)nn4)c3n2)CCO1 (stereo not drawn) [Compound 89A, ((1r,4r)-4-(3-(difluoromethyl)-4-(4-(5-(2,2-dimethylmorpholinyl)pyrazolo[1,5-a]pyrimidin-3-yl)-1H-1,2,3-triazol-1-yl)-1H-pyrazol-1-ylcyclohexyl)methanol]",100 to 1000
16,"O=C(O)c1cnc2c(ccn2-c2cn(-c3cn(C4CCCCC4)nc3C(F)F)nn2)c1 [Compound 66A, 1-(1-(1-cyclohexyl-3-(difluoromethyl)-1H-pyrazol-4-yl)-1H-1,2,3-triazol-4-yl)-1H-pyrrolo[2,3-b]pyridine-5-carboxylic acid]",1000 to 5000
17,"C[C@H]1CC(n2cc(-n3cc(-c4cnn5ccc(N6CCOCC6)nc45)nn3)c(C(F)F)n2)CCN1 (stereo partly drawn) [Compound 79A, 4-(3-(1-(3-(difluoromethyl)-1-((2S)-2-methylpiperidin-4-yl)-1H-pyrazol-4-yl)-1,2,3-triazol-4-yl)pyrazolo[1,5-a]pyrimidin-5-yl) morpholine]",100 to 1000
18,OC[C@H]1CC[C@H](n2cc(-n3cc(-c4cnn5ccc(N6CCC(O)C6)nc45)nn3)c(C(F)F)n2)CC1 (stereo partly drawn) [Compound 101A],100 to 1000
19,"NC(=O)c1cnn2c(-c3cn(-c4cn(C5CCNCC5)nc4C(F)F)nn3)ccc2c1 [Compound 84A, 7-(1-(3-(difluoromethyl)-1-(piperidin-4-yl)-1H-pyrazol-4-yl)-1H-1,2,3-triazol-4-yl)pyrrolo[1,2-b]pyridazine-3-formamide]",100 to 1000
20,"CN(C)C1CCN(c2ccn3ncc(-c4cn(-c5cn(C6CCC(CO)CC6)nc5C(F)F)nn4)c3n2)CC1 (stereo not drawn) [Compound 102A, ((1r, 4r)-4-(3-(difluoromethyl)-4-(4-(5-(4-(dimethylamino)piperidin-1-yl)pyrazolo[1,5-a]pyrimidin-3-yl)-1H-1,2,3-triazol-1-yl)-1H-pyrazol-1-ylcyclohexyl)methanol]",100 to 1000
21,"OC[C@H]1CC[C@H](n2cc(-n3cc(-c4cnn5ccc(N6CCOCC6)nc45)nn3)c(C(F)F)n2)CC1 [Compound 104A, ((1r,4r)-4-(3-(difluoromethyl)-4-(4-(5-morpholinyl-pyrazolo[1,5-a]pyrimidin-3-yl)-1H-1,2,3-triazol-1-yl)-1H-pyrazol-1-yl]cyclohexyl)methanol]",< 100
22,"OCC1CCC(n2cc(-n3cc(-c4cnn5ccc(N[C@H]6CCCC[C@H]6O)nc45)nn3)c(C(F)F)n2)CC1 (stereo partly drawn) [Compound 107A, (1R,2S)-2-((3-(1-(3-(difluoromethyl)-1-((1R,4S)-4-(methylol)cyclohexyl)-1H-pyrazol-4-yl)-1H-1,2,3-triazol-4-yl]pyrazolo[1,5-a]pyrimidin-5-yl)amino)cyclohexan-1-ol]",< 100
23,"FC(F)c1nn(C2CCCCC2)cc1-n1cc(-c2cnn3ccc(N4C[C@H]5C[C@@H]4CO5)nc23)nn1 [Compound 1A, (1R,4R)-5-(3-(1-(1-cyclohexyl-3-(difluoromethyl)-1H-pyrazol-4-yl)-1H-1,2,3-triazol-4-yl]pyrazolo[1,5-a]pyrimidin-5-yl)-2-oxa-5-azabicyclo[2.2.1]heptane]",100 to 1000
24,"CC1(C)C[C@@H](n2cc(-n3cc(-c4cnn5ccc(N6CCOCC6)nc45)nn3)c(C(F)F)n2)CCN1 [Compound 87A, (S)-4-(3-(1-(3-(difluoromethyl)-1-(2,2-dimethylpiperidin-4-yl)-1H-pyrazol-4-yl)-1,2,3-triazol-4-yl]pyrazolo[1,5-a]pyrimidin-5-yl) morpholine]",100 to 1000
25,"OCC1CCC(n2cc(-n3cc(-c4cnn5ccc(N6CCC[C@H](O)C6)nc45)nn3)c(C(F)F)n2)CC1 (stereo partly drawn) [Compound 112A, (S)-1-(3-(1-(3-(difluoromethyl)-1-((1r,4r)-4-(methylol)cyclohexyl)-1H-pyrazol-4-yl)-1H-1,2,3-triazol-4-yl]pyrazolo[1,5-a]pyrimidin-5-yl)piperidin-3-ol]",< 100
26,"CC1(C)CC(n2cc(-n3cc(-c4cnn5ccc(N6CCOCC6)nc45)nn3)c(C(F)F)n2)CCN1 (stereo not drawn) [Compound 85A, 4-(3-(1-(3-(difluoromethyl)-1-(2,2-dimethylpiperidin-4-yl)-1H-pyrazol-4-yl)-1,2,3-triazol-4-yl]pyrazolo[1,5-a]pyrimidin-5-yl) morpholine]",< 100
27,"NC(=O)c1cnc2c(ccn2-c2cn(-c3cn(C4CCCCC4)nc3C(F)F)nn2)c1 [Compound 65A, 1-(1-(1-cyclohexyl-3-(difluoromethyl)-1H-pyrazol-4-yl)-1H-1,2,3-triazol-4-yl)-1H-pyrrolo[2,3-b]pyridine-5-formamide]",100 to 1000
